{"source": "patent US10175228B2", "about": "“Method of using transmembrane channel-like protein 6 (TMC6) protein to identify substances affecting salty taste” (priority 2016, dated 2019)", "note": "Counter-ions that a name gives are not always drawn.", "data": [{"target": "T1, mouse TMC6 protein (Mus musculus, UniProt Q7TN60, A788T)", "T1 construct": "expressed in transfected cells; host or cells: CHO-K1", "T1 sequence (Q7TN60 1-810 A788T)": "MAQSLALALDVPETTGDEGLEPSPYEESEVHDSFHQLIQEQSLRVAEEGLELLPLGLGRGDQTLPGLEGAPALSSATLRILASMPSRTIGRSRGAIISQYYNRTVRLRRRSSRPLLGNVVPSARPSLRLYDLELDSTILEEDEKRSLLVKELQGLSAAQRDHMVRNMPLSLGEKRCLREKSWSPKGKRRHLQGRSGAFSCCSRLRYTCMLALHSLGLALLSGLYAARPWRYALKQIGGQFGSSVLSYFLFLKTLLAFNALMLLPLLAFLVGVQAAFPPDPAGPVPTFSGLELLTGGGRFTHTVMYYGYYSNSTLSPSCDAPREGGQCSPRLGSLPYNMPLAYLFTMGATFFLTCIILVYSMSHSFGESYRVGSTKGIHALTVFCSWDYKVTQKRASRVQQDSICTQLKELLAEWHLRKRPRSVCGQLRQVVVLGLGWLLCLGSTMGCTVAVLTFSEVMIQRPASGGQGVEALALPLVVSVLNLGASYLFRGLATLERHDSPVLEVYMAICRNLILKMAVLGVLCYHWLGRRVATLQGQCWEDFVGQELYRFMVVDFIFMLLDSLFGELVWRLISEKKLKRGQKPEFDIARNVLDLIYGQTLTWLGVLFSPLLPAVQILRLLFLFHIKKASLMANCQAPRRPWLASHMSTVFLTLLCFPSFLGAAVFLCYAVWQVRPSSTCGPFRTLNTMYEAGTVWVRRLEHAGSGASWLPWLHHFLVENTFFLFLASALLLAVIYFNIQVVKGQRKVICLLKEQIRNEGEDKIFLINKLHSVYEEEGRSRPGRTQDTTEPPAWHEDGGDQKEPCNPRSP", "assay": "Calcium imaging (YC2.60 FRET) of CHO-K1 cells expressing the mouse TMC6 gene", "type": "cell-based", "settings": "one typical TMC6-expressing cell, stimulation with ATP stimulation solution (50 μM ATP), FIG. 13C", "procedure": "CHO-K1 cells were transfected with TMC6-pcDNA3.1 or pcDNA3.1 in combination with YC2.60-pcDNA, to prepare TMC6-expressing cells (cells expressing the mouse TMC6 gene and the YC2.60 gene) and control cells (cells expressing the YC2.60 gene). The prepared cells were stimulated, and activation of the cells was measured. The procedure was as follows.\nThat is, first, CHO-K1 cells (ATCC) were inoculated into a culture dish having a diameter of 60 mm while adjusting the number of the cells to obtain 60% confluence, and cultured for 8 hr. As the medium, 5 mL of Ham's F-12K (Kaighn's) (Life Technologies) containing 10% fetal bovine serum (Life Technologies) was used. A 15 μL aliquot of FuGENE 6 (Promega) was added to 235 μL of Opti-MEM (Thermo Fisher Scientific), and incubated for 5 min at a room temperature. Then, 0.625 μg of TMC6-pcDNA3.1 and 2.5 μg of YC2.60-pcDNA were further added thereto, and incubated for 15 min at a room temperature. Then, the whole of the resultant mixture was dropped into the culture broth of the CHO-K1 cells, and the culture broth was mildly stirred. Then, the cells were further cultured for 18 hr under a condition of 5% CO2 at 37° C., to obtain the TMC6-expressing cells. Similarly, the control cells were obtained through transfection using pcDNA3.1 instead of TMC6-pcDNA3.1.\nAfter the cultivation, the culture broth was removed. A low-concentration NaCl solution (27 mM NaCl, 1 mM KCl, 0.4 mM CaCl2, 0.2 mM MgCl2, 2 mM Hepes (pH7.3), 1 mM NaHCO3, 2 mM glucose, 2 mM sodium pyruvate, and 112 mM NMDG-Cl) was added to the culture dish, incubation was carried out statically for 5 min, and then, stimulation and observation of cells were started. First, the low-concentration NaCl solution was perfused for approximately 80 sec, to provide a ground state. Then, a high-concentration NaCl solution (135 mM NaCl, 1 mM KCl, 0.4 mM CaCl2, 0.2 mM MgCl2, 2 mM Hepes (pH7.3), 1 mM NaHCO3, 2 mM glucose, and 2 mM sodium pyruvate) was perfused instead of the low-concentration NaCl solution for approximately 60 sec, to stimulate the cells. […]", "values": [{"compound": "Nc1ncnc2c1ncn2[C@@H]1O[C@H](COP(=O)(O)OP(=O)(O)OP(=O)(O)O)[C@@H](O)[C@H]1O", "note": "[ATP]", "relative FRET value (YFP/CFP) of the ROI-1 cell": "≥ 1.3"}]}, {"tested_on": "wild-type C57BL/6J mouse and homo knockout mouse of the TMC6 gene", "assay": "Palatability tests for taste substances other than NaCl, two-bottle method", "type": "in vivo", "settings": "48 hr, taste substance aqueous solution versus control aqueous solution", "procedure": "<Taste Substance Aqueous Solutions>\nMSG: 100 mM monosodium glutamate\nMSG+IMP: 100 mM monosodium glutamate+1 mM inosinic acid\nCitric Acid: 10 mM citric acid\nQuinine HCl: 0.3 mM quinine hydrochloride\nFructose: 300 mM fructose", "values": [{"compound": "OC[C@H]1O[C@@](CO)(O[C@H]2O[C@H](CO)[C@@H](O)[C@H](O)[C@H]2O)[C@@H](O)[C@@H]1O", "note": "[Sucrose, sucrose]", "difference in palatability or repellency between Tmc6 −/− mouse and wild-type mouse": "No difference"}, {"compound": "C=C[C@H]1C[N@@]2CC[C@H]1C[C@H]2[C@H](O)c1ccnc2ccc(OC)cc12", "note": "[Quinine HCl, quinine hydrochloride]", "difference in palatability or repellency between Tmc6 −/− mouse and wild-type mouse": "No difference"}, {"compound": "N[C@@H](CCC(=O)O)C(=O)[O-].[Na+]", "note": "[MSG, monosodium glutamate]", "difference in palatability or repellency between Tmc6 −/− mouse and wild-type mouse": "No difference"}, {"compound": "O=C(O)CC(O)(CC(=O)O)C(=O)O", "note": "[Citric acid, citric acid]", "difference in palatability or repellency between Tmc6 −/− mouse and wild-type mouse": "No difference"}, {"compound": "O=C(CO)[C@@H](O)[C@H](O)[C@H](O)CO", "note": "[Fructose, fructose]", "difference in palatability or repellency between Tmc6 −/− mouse and wild-type mouse": "No difference"}]}]}
